Reference: patent US10478425B2, “5-phenylazaindole derivative having AMPK-activating activity” (Shionogi & Co., Ltd., priority 2016, dated 2019)

Experiments:
[1] = test system: phosphorylation of endogenous acetyl-CoA carboxylase (ACC) in L6-GLUT4myc myoblasts; test: Test Example 3: cell-based ELISA of ACC (Ser79) phosphorylation for AMPK activation in L6-GLUT4myc myoblasts; details: for EC (150% of control): concentration causing 150% relative to vehicle control (100%), 3 hours, phospho-ACC; for Emax: maximum response within varying concentrations, vehicle control = 100%
Protocol: Cell-based assay for AMPK activation potency of compounds was performed with L6-GLUT4myc myoblasts (J. Biol. Chem. 278:17953-62, 2003) in a 96-well or 384-well plate by detecting the phosphorylation of endogenous acetyl-CoA carboxylase (ACC) using cell-based ELISA method. The cells were seeded in a 96-well plate at a density of 2×10^4 cells per well or in a 384-well plate at a density of 3.5×10^3 cells per well in minimum essential media (α-MEM) supplemented with 10% fetal bovine serum, 100 U/mL penicillin, 100 μg/mL streptomycin, 2 μg/mL blasticidin S hydrochloride and 0.5 mg/mL G418 disulfate, and maintained in a humidified atmosphere of 95% air and 5% CO2 at 37° C. for 24 hours. Following the overnight culture with an assay buffer consisting of 0.1% bovine serum albumin (BSA), 100 U/mL penicillin and 100 μg/mL streptomycin, cells were treated with varying concentrations of compounds or vehicle (dimethyl sulfoxide at a final concentration of 0.33%) in the presence of 0.1% BSA or 4% BSA for 3 hours at room temperature. After fixing cells with ice-cold 4% formaldehyde in Tris-buffered saline (TBS) for 30 min, the fixed cells were rinsed with TBS containing 0.1% or 0.01% Triton X-100 (TBS-T) and quenched with 0.6% hydrogen peroxide in TBS-T, and blocked with a blocking reagent (Blocking One P manufactured by Nacalai Tesque). Then, anti-phospho-ACC (Ser79) antibody as the primary antibody (manufactured by Cell Signaling Technology) diluted with TBS-T containing 5% Blocking One P was added to each well and the plate was incubated overnight at 4° C. After rinsing each well with TBS-T, horseradish peroxidase (HRP)-conjugated anti-rabbit IgG as the secondary antibody diluted with TBS-T containing 5% Blocking One P was added to each well and the plate was incubated for 1 hour in 96-well plate or for 5 hours in 384-well plate at room temperature. Each well of the plate was rinsed with TBS-T and added a chemiluminescent reagent (ImmunoStar® LD manufactured by Wako Pure Chemical Industries) for detection of HRP conjugates. Ten minutes later, the luminescence intensity was measured using luminometer (ViewLux or ARVO manufactured by PerkinElmer). The luminescence in the presence of compound was calculated as the rate of change relative to vehicle control, which is in the absence of compound.

[2] = BA test (oral absorption); type: in vivo; details: rat, plasma; rats; calculated from AUCs of oral and intravenous administration groups
Protocol: • (1) Animals: mice or rats • (2) Animal husbandry: Mice and rats had free access to solid food and sterilized bottled tap water. • (3) Setting of dose and group compositions: orally or intravenously administered at a predetermined dose Group compositions were as shown below. (Dose depends on the compound)
Oral: 1 to 30 mg/kg (n=2 to 3)
Intravenous: 0.5 to 10 mg/kg (n=2 to 3) • (4) Preparation of administration formulation: for oral administration, in a solution or a suspension state; for intravenous administration, in a solubilized state • (5) Dosing procedure: In oral administration study, the test substance was forcibly administered to the stomach by using a gavage tube. In intravenous administration study, the test substance was administered via tail vein using a syringe with a needle. • (6) Evaluation items: Blood was collected at each time point, and plasma concentration of the drug was determined by LC/MS/MS. • (7) Data analysis: Regarding the transition of the plasma concentration, area under the plasma concentration-time curve (AUC) was calculated by means of WinNonlin® program, respectively. Bioavailability (BA) was calculated from AUCs of the oral administration group and intravenous administration group.

[3] = target: T1, Human AMPK α2β2γ1 (Homo sapiens, UniProt O43741+P54646); test: Test Example 2: activation of phosphorylated human AMPK α2β2γ1 (mobility-shift kinase assay, FL-Peptide 7); type: biochemical; details: for EC150: compound concentration showing 150% relative to the control (100%), human AMPK α2β2γ1 phosphorylated with CaMKK2; for Emax: maximum rate of increase in activity within the measurement range, control = 100%, read-out: Emax
T1 construct: The full length cDNAs of human AMPK β2 (NM_005399.3) and human AMPK α2 (NM_006252.3); The full length cDNAs of human AMPK β2 (NM_005399.3); the full length cDNA of human AMPK γ1 (NM_002733.3) had been inserted into pET28b(+); 6×His (N); made in house; host or cells: Escherichia coli BL21 CodonPlus (DE3)-RIL
T1 sequence (P54646 whole entry): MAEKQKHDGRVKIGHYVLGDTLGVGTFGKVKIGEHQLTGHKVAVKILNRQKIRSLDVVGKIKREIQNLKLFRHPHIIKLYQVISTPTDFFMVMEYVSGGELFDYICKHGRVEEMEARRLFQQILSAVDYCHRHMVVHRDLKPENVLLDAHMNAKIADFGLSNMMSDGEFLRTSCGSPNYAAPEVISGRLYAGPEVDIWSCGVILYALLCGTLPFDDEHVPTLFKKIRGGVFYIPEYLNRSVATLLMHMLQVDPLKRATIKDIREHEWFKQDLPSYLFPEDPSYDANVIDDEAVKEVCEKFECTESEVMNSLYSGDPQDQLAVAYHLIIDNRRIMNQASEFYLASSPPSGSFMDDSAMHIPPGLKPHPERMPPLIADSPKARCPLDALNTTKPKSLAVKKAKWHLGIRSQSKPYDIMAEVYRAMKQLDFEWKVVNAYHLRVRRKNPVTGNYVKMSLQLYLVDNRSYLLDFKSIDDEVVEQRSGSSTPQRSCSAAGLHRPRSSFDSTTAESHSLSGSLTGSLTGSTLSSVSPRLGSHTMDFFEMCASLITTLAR
T1 sequence (O43741 whole entry): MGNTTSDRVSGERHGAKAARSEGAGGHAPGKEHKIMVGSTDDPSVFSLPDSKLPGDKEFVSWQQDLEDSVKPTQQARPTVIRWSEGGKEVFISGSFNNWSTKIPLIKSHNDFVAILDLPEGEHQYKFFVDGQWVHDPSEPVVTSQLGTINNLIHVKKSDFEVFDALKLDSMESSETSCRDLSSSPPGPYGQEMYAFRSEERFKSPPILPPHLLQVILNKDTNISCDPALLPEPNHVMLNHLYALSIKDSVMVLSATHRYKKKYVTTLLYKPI
T1 sequence (P54619 whole entry partner): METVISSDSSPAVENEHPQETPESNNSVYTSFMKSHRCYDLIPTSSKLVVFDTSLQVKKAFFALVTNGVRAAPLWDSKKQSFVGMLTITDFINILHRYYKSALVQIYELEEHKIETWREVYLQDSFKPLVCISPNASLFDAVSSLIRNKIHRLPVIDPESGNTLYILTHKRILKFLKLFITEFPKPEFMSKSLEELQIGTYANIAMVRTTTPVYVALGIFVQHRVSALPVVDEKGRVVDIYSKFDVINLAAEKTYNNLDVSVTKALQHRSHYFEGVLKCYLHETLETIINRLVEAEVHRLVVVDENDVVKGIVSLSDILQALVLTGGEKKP
How it was run: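 His-tagged α2β2γ1 expressed in E. coli was pre-phosphorylated by GST-CaMKKβ (25 °C, 1–1.5 h), then exposed to compound for 10 min (1% DMSO). Reaction: pH 7.0 HEPES, ATP and 1.5 μM FL-Peptide 7 (final), 2 h at 25 °C. Mobility-shift conversion gave % activity increase versus compound-free control.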

Structure (SMILES) | EC (150% of control) [1] | Emax [1] | bioavailability [2] | EC150 [3] | Emax [3]
COCCNc1ccc(-c2ccc(-c3nc4cc(O[C@@H]5CO[C@H]6[C@@H]5OC[C@H]6O)[nH]c4cc3F)cc2)cc1 [Compound I-2-31] | 0.134 µM | 656% | 40.5% | 6.8 nM | 478%
O[C@@H]1CO[C@H]2[C@@H]1OC[C@H]2Oc1cc2nc(-c3ccc([C@@H]4CCCC[C@@H]4O)cc3)c(F)cc2[nH]1 [Compound I-2-18] | 0.164 µM | 612% | 18.6% | 12 nM | 618%
CC(=O)N1CCC(Oc2ccc(-c3ccc(-c4nc5cc(O[C@@H]6CO[C@H]7[C@@H]6OC[C@H]7O)[nH]c5cc4F)cc3)cc2)C1 (some centres unmarked) [Compound I-1-27] | 0.168 µM | 473% | 19.6% | 5.8 nM | 332%
C[S+]([O-])c1ccc(-c2ccc(-c3nc4cc(O[C@@H]5CO[C@H]6[C@@H]5OC[C@H]6O)[nH]c4cc3F)cc2)cc1 (some centres unmarked) [Compound I-1-64] | 0.021 µM | 509% | 17.8% | 1.6 nM | 375%
O=C1NCCC1Oc1ccc(-c2ccc(-c3nc4cc(O[C@@H]5CO[C@H]6[C@@H]5OC[C@H]6O)[nH]c4cc3F)cc2)cc1 (some centres unmarked) [Compound I-1-70] | 0.156 µM | 512% | 25.5% |  | 
CC(C)(O)COc1ccc(-c2ccc(-c3nc4cc(O[C@@H]5CO[C@H]6[C@@H]5OC[C@H]6O)[nH]c4cc3F)cc2)cc1 [Compound I-2-13] | 0.16 µM | 650% | 59% | 3 nM | 652%
CN1CCC(Oc2ccc(-c3ccc(-c4nc5cc(O[C@@H]6CO[C@H]7[C@@H]6OC[C@H]7O)[nH]c5cc4F)cc3)cc2)C1=O (some centres unmarked) [Compound I-2-32] | 0.086 µM | 531% | 28.6% | 1.3 nM | 379%
O[C@@H]1CO[C@H]2[C@@H]1OC[C@H]2Oc1cc2nc(-c3ccc(-c4ccc(O[C@@H]5CCOC5)cc4)cc3)c(F)cc2[nH]1 [Compound I-2-84] | 0.079 µM | 684% | 52.1% | 4.3 nM | 514%
CS(C)(=O)=Nc1ccc(-c2ccc(-c3nc4cc(O[C@@H]5CO[C@H](CO)C5)[nH]c4cc3F)cc2)cc1 [Compound I-1-47] | 0.0039 µM | 547% |  | 0.96 nM | 542%
COCCOc1ccc(-c2ccc(-c3nc4cc(O[C@@H]5CO[C@H]6[C@@H]5OC[C@H]6O)[nH]c4cc3F)cc2)cc1 [Compound I-1-66] | 0.103 µM | 635% | 38.8% | 8.5 nM | 333%
